Row | melting point | SMILES
1 | 125 to 129 °C | SCC1=NC2CCCCC2N1 (stereo not drawn)
2 | 155 to 160 °C | CC(=O)Nc1ccc(CCC2(c3ccccc3)CC(O)=CC(=O)O2)cc1 (stereo not drawn)
3 | 102 to 104 °C | Fc1cc(F)c(-c2c(Cl)ncn2-c2ccc(Cl)cc2)c(F)c1
4 | 85 to 86 °C | Cn1nc(Br)c(Br)c1Br
5 | > 300 °C | O=c1[nH]c2sc3c(Cl)cccc3c2[nH]c1=O
6 | 200 to 202 °C | Cn1nc(-c2ccc([N+](=O)[O-])cc2)c2ccccc2c1=O
7 | 100 to 103 °C | CC(C)(C)OC(=O)Nc1ccc(-c2ccccc2F)cc1N
8 | 223 to 225 °C | O=C1CCC(N2C(=O)c3cccc(NCc4cccs4)c3C2=O)C(=O)N1 (stereo not drawn)
9 | 255 °C | Oc1nc(-c2ccc(Cl)cc2)nc2c1CCCC2
10 | 176 to 178 °C | COc1cc(C(=O)NS(=O)(=O)c2ccccc2)cnc1C(=O)O
11 | 220 to 222 °C | Cc1oc(-c2ccccc2)nc1CCOc1ccc(C[C@@H](C(=O)O)N2CCN(c3ccccc3)CC2)cc1Br
12 | 62 to 64 °C | CC(C)OC(=S)NC1(N=NC(C)(C)C)CCCCC1
13 | 117 to 118 °C | COc1ccccc1N1CCN(CCNc2ccccc2[N+](=O)[O-])CC1
14 | 159 to 161 °C | CN1C(=S)NN2CCCC21c1ccc(Cl)cc1 (stereo not drawn)
15 | 170 °C | O=C(Nc1cccc(Br)n1)Nc1cccc2c1C1CC3(CCN1C2=O)SCCS3 (stereo not drawn)
16 | 104 to 106 °C | CCCCCCCCCCc1nnnn1CC(=O)O
17 | 190 to 191 °C | Cc1c(CC(=O)O)c2cc3c(cc2n1C(=O)C=Cc1ccccc1)OCO3
18 | 364 to 366 °C | O=C(CC(=O)C(F)(F)F)Nc1cc(-c2ccncc2)n[nH]1
19 | 262 to 263 °C | Cn1cc(C2=C(c3c4n(c5ccccc35)CCC(CO)C4)C(=O)NC2=O)c2ccccc21 (stereo not drawn)
20 | 197 to 199 °C | Cc1ccc(N2Cc3ccccc3P2(=O)c2ccccc2)cc1 (stereo not drawn)
21 | 246 to 247 °C | O=Cc1ccc(-c2nc3ccccn3n2)cc1
22 | > 300 °C | CC1(C)CC(=O)C2=C(C1)NC1=C(C(=O)CC(C)(C)C1)C2c1ccc(Cl)cc1Cl
23 | 209 to 214 °C | COc1cc(-c2nc(-n3cccn3)c3c(C)c(C#N)sc3n2)cc(OC)c1OC
24 | 250 to 251 °C | CC(=O)NCc1ccn(-c2cc3c(cc2C(F)(F)F)[nH]c(=O)c(=O)n3CC(=O)O)c1
25 | 240 to 242 °C | O=C(O)CCN1C(=O)c2ccc(C(=O)O)cc2C1=O

Row | melting point | SMILES
26 | 169 to 172 °C | CCNC(=O)c1ccc(-n2nnc(C(=O)NC3CC3)c2CS(=O)(=O)c2ccccc2)cc1
27 | 81.1 to 84.1 °C | CC(CNC(=O)N(CCC(F)(F)F)CCC12CC3CC(CC(C3)C1)C2)Cc1ccncc1 (stereo not drawn)
28 | 94 to 95 °C | COC(=O)c1ccc2sccc2c1O
29 | 64 to 67 °C | CCCCCCC(=O)c1ccc2occc2c1
30 | 97 to 99 °C | CCCCC(NC(=O)C(CC(C)C)NC(=O)c1ccc2ccccc2c1)C(=O)CSCc1ccco1 (stereo not drawn)
31 | 142 to 143 °C | CCOC(=O)C1=C(C)NC(CN(C)C)=C(C(=O)OCC)C1c1ccccc1Br (stereo not drawn)
32 | 220 °C | CC(C)N1CC(C(=O)c2c[nH]c(Cc3ccc(F)cc3)n2)=C(O)C1=O
33 | 202 to 204 °C | Cc1ccc(S(=O)(=O)c2cnc(C)nc2Nc2c(C)cc(C)cc2C)cc1
34 | 164 to 165 °C | COC(=O)c1nsc2nccn12
35 | 184 to 186 °C | CCCCNN1C=c2cc(-c3c(Cl)cccc3Cl)c(=O)n(C)c2=NC1
36 | 153 to 157 °C | COc1c(Cl)cc(C(=O)Cl)cc1Cl
37 | 169 to 171 °C | NC(=O)c1cccc(NS(=O)(=O)c2cc(S(=O)(=O)Nc3cccc(C(N)=O)c3)c3cc(O)ccc3c2)c1
38 | 128 °C | Cc1cc(=O)c(-c2ccc(Cl)c(Cl)c2)c(-c2ccc(S(N)(=O)=O)cc2)o1
39 | > 250 °C | Cc1ccc(F)c2c1NC(=O)C21COc2cc3c(cc21)CCO3 (stereo not drawn)
40 | 181 to 183 °C | COc1ccc2[nH]c(C(C)C)c(C=O)c2c1
41 | 129 to 131 °C | Cc1ccc(OC(Cc2ccc(OCCNC(=O)c3ccc(-c4ccccn4)cc3)cc2)C(=O)O)cc1 (stereo not drawn)
42 | 45 to 46 °C | OCCCc1cnoc1-c1ccc2c(c1)OCO2
43 | 64 to 65 °C | O=C(C=C(Cl)Cl)c1cc(F)c(Cl)cc1Cl
44 | 99 to 100 °C | CCCCSc1nsnc1OC1CCNC1 (stereo not drawn)
45 | 148 to 151 °C | OCC1(c2ccccc2)CCN(CCC(c2ccccc2)(c2ccccc2)c2ccccn2)CC1
46 | 158 to 161 °C | O=C(O)C(c1ccccc1)n1nnc(C(c2ccccc2)c2ccccc2)n1 (stereo not drawn)
47 | 174 °C | Cc1ccc(C=Cc2ccc(C#CC(C)N(O)C(N)=O)o2)cc1 (stereo not drawn)
48 | 170 °C | COC1(OC)C(=O)Nc2ccc(C(=O)c3ccc(Cl)cc3)cc21
49 | 168 °C | COc1ccc(-c2nnc(NC3CCN(Cc4ccccc4)CC3)c3cc(OC)cc(OC)c23)cc1
50 | 174 °C | OCCC1Cc2ccccc2CN1C(=S)Nc1cccnc1 (racemic)

Row | melting point | SMILES
51 | 153 to 155 °C | CN(C)S(=O)(=O)N1CCN(S(=O)(=O)c2ccc(Oc3ccccc3)cc2)[C@@H](C(=O)NO)C1
52 | 116 to 118 °C | COc1ccc2c(c1OC)SCCC2C#N (stereo not drawn)
53 | 266 to 270 °C | NC(=O)CN(CCCc1ccc(F)cc1)C1CCC(c2ccc3[nH]c(=O)oc3c2)CC1 (stereo not drawn)
54 | 203 to 205 °C | O=C(O)c1ccc(CSc2nnc(-c3ccc4c(c3)CCO4)o2)cc1
55 | 188 to 189 °C | O=C(NCc1ccccc1)c1oc(=O)c2ncccc2c1-c1ccccc1
56 | 118 to 122 °C | CC1CCc2ncc(-c3ccccc3)c(=O)n21 (stereo not drawn)
57 | 168 to 170 °C | COc1ccc(C(=O)Nc2ccccc2)cc1NCc1cc(C)cc(C)c1
58 | 172 °C | Cc1cnc(NC(=O)c2cc(Oc3ccc(C(=O)N4CCC4)cc3F)cc(O[C@@H](C)CO)c2)cn1
59 | 85 to 90 °C | O=C(N[C@@H](CO)C(=O)NCCc1ccccc1)c1ccc(C(=O)c2cccnc2)cc1
60 | 218 °C | CC(=O)C1=C(O)C(=C(C)Nc2cccc(NC(=O)C(O)CO)c2)C(=O)OC1=O (stereo not drawn)
61 | 116 to 117 °C | OCc1cn(Cc2ccc3cc(OCc4ccccc4)ccc3c2)cc1-c1ccccc1
62 | 193 to 194 °C | COc1cc(C(C)C)c2c(c1)S(=O)(=O)N(COc1cc(C(=O)O)nn1-c1ccccc1)C2=O
63 | 105 to 106 °C | NC(=O)CNC(=O)c1cccc(-c2cccc3oc(Cc4cccc(C(F)(F)F)c4)cc23)c1
64 | 160 to 164 °C | c1c(N2CCCC2)nc(NC23CC4CC(CC(C4)C2)C3)nc1N1CCNCC1
65 | 192 to 193 °C | O=c1oc(-c2ccc3c(c2)OCCO3)cc(O)c1SCc1ccccc1
66 | 125 to 126 °C | O=C(CCc1oc(-n2cnc3ccccc32)nc1-c1ccc(Cl)cc1)N1CCSC1
67 | > 300 °C | Cn1cnc2c(=S)[nH]ccc21
68 | 158 to 160 °C | Cc1ncnc(N)c1C=O
69 | 77 to 80 °C | COC(=O)C(=Cc1ccc2c(c1)CCO2)N=[N+]=[N-]
70 | 177 to 179 °C | CC1=NSc2c(F)c(F)c(F)c(F)c2N1Cc1ccc(-c2ccccc2C(=O)OC(C)(C)C)cc1
71 | 236 to 238 °C | c1cc(Nc2csc3cnccc23)ccn1
72 | > 300 °C | O=C(O)Cc1c[nH]c2cc(C3CC3)nn2c1=O
73 | 114 to 115 °C | Fc1ccc(-c2cc(C(S)(C(F)(F)F)C(F)(F)F)[nH]c2-c2ccc(F)cc2)cc1
74 | 97 to 99 °C | COc1cccc(-c2cc(C)cc3c2OC(CN)C3)c1OC (stereo not drawn)
75 | 111 to 115 °C | Cc1sc(C)c2c1CCCC2(O)c1cn(C(c2ccccc2)(c2ccccc2)c2ccccc2)cn1 (stereo not drawn)

Row | melting point | SMILES
76 | 181 to 182 °C | Cn1nc(-c2ccc(F)cc2)c(-c2ccc(S(C)(=O)=O)cc2)cc1=O
77 | 126 °C | CCc1nn(C2CCCC2)c2c1CCn1c(-c3cccs3)nnc1-2
78 | 73.8 to 76 °C | CC(C)=CCn1c(-c2ccc3c(c2)OCO3)nc2ccccc21
79 | 150 to 151 °C | Nc1ccc2c(c1)SN(CCCCN1CCN(c3ncccn3)CC1)C2
80 | 145 °C | CCCCc1nc(=O)c2ccc(C(=O)OCC)cc2[nH]1
81 | 151 to 152 °C | Cn1c(Cn2ccnc2)nc2ccccc21
82 | 207 to 208 °C | N#Cc1cn(-c2ccccn2)nc1-c1ccc([N+](=O)[O-])o1
83 | 171 to 172 °C | CC(F)(F)c1ccc(Oc2ccc(C3CCCN4CCS(=O)(=O)N=C34)cc2)cc1 (stereo not drawn)
84 | 163 °C | Nc1cc(-c2ccc(CO)o2)nn1Cc1ccccc1
85 | 50 to 51 °C | CCOC(=O)CC(=O)c1ccc(Cl)c(C)c1
86 | 74 to 76 °C | CN(C)Cc1ccc(CSCCN=CNC#N)o1
87 | 314 to 316 °C | O=C1CN(N=Cc2ncc(-c3ccc([N+](=O)[O-])cc3)o2)C(=O)N1
88 | 127 to 129 °C | Cc1oc2c(-n3c(=O)cc(C(F)(F)F)n(C)c3=O)c(F)cc(Cl)c2c1CC(N)=O
89 | 124 to 125 °C | O=C(CCCCl)c1cc2c(s1)SCCNC2=O
90 | 170 to 171 °C | CC1CC=C(N(C)c2ccccc2)c2ncc(C(=O)O)c(=O)n21 (stereo not drawn)
91 | 94 °C | CC(C)(F)CC(=O)c1cc(C(C)(C)C)c(O)c(C(C)(C)C)c1
92 | 91 to 92 °C | COC(=O)c1oc(C(C)(C)C)cc1N
93 | 230 °C | Cc1cc(-c2cc(C(F)(F)F)n3ncc(C(=O)Nc4cccc(S(=O)(=O)N5CCCC5)c4)c3n2)ccc1Cl
94 | 173 °C | NC(=S)N1CCc2cccnc21
95 | 166 to 167 °C | CCOC(=O)C1=C(C)NC(c2ccc(OC)cc2)=C(C(=O)OCC)C1c1cccc([N+](=O)[O-])c1 (stereo not drawn)
96 | 163 to 165 °C | COc1ccc(C=Cc2oc3ccc(Br)cc3c2C(C)=O)cc1
97 | 229 to 230 °C | N#Cc1ccc(N(Cc2ccccc2)n2cnnc2)cc1-c1ccc(O)cc1
98 | 87 to 88 °C | CCC(CC)(CO)CCCS(=O)(=O)N=CN(C)C
99 | > 300 °C | COC(=O)c1ccc2c(c1)C(=O)C(C)C(c1ccccc1)=N2 (stereo not drawn)

Row | SMILES | melting point
100 | N#Cc1ccc(CCl)cn1 | 45 to 47 °C
101 | NC1(CF)CCCNC1=O (stereo not drawn) | 132 °C
102 | Cc1nc(CN(C)C)n(-c2ccc(Cl)cc2C(=O)c2ccccc2Cl)c1CO | 164 to 166 °C
103 | N#Cc1nn(-c2c(Cl)cc(C(F)(F)F)cc2Cl)c(Br)c1S(=O)(=O)C(F)(F)F | 136 to 137 °C

— a melting point compilation (Tetko et al.; mined from patent text by program, amines drawn as free bases though some values may be those of a salt)
